Converted amounts (≈) assume the structure as drawn.
Tests used:
Type in all cases: functional
[1] = system: Bacillus pumilus; test: Antibacterial activity against Bacillus pumilus MTCC 1456 at 100 ug/ml after 48 hr by cup-plate method; details: MTCC 1456, 48 h, read-out: DIZ
[2] = system: Micrococcus luteus; test: Antibacterial activity against Micrococcus luteus MTCC 1538 at 500 ug/ml after 48 hr by cup-plate method; details: MTCC 1538, 48 h, read-out: DIZ
[3] = system: Bacillus subtilis; test: Antibacterial activity against Bacillus subtilis MTCC 441 at 1250 ug/ml after 48 hr by cup-plate method; details: MTCC 441, 48 h, read-out: DIZ
[4] = system: Pseudomonas fluorescens; test: Antibacterial activity against Pseudomonas fluorescens MTCC 2421 at 500 ug/ml after 48 hr by cup-plate method; details: MTCC 2421, 48 h, read-out: DIZ
[5] = system: Bacillus subtilis; test: Antibacterial activity against Bacillus subtilis MTCC 441 at 500 ug/ml after 48 hr by cup-plate method; details: MTCC 441, 48 h, read-out: DIZ
[6] = system: Staphylococcus aureus; test: Antibacterial activity against Staphylococcus aureus MTCC 1430 after 24 to 48 hr by tube dilution method
[7] = system: Bacillus subtilis; test: Antibacterial activity against Bacillus subtilis MTCC 441 at 100 ug/ml after 48 hr by cup-plate method; details: MTCC 441, 48 h, read-out: DIZ
[8] = system: Penicillium chrysogenum; test: Antifungal activity against Penicillium chrysogenum MTCC 161 at 250 ug/ml after 48 hr by cup-plate method; details: MTCC 161, 48 h, read-out: DIZ
[9] = system: Bacillus subtilis; test: Antibacterial activity against Bacillus subtilis MTCC 441 after 24 to 48 hr by tube dilution method
[10] = system: Bacillus pumilus; test: Antibacterial activity against Bacillus pumilus MTCC 1456 at 500 ug/ml after 48 hr by cup-plate method; details: MTCC 1456, 48 h, read-out: DIZ
[11] = system: Pseudomonas fluorescens; test: Antibacterial activity against Pseudomonas fluorescens MTCC 2421 at 1000 ug/ml after 48 hr by cup-plate method; details: MTCC 2421, 48 h, read-out: DIZ
[12] = system: Escherichia coli; test: Antibacterial activity against Escherichia coli MTCC 1573 after 24 to 48 hr by tube dilution method
[13] = system: Escherichia coli; test: Antibacterial activity against Escherichia coli MTCC 1573 at 1250 ug/ml after 48 hr by cup-plate method; details: MTCC 1573, 48 h, read-out: DIZ
[14] = system: Penicillium chrysogenum; test: Antifungal activity against Penicillium chrysogenum MTCC 161 at 1250 ug/ml after 48 hr by cup-plate method; details: MTCC 161, 48 h, read-out: DIZ
[15] = system: Pseudomonas aeruginosa; test: Antibacterial activity against Pseudomonas aeruginosa MTCC 424 at 500 ug/ml after 48 hr by cup-plate method; details: MTCC 424, 48 h, read-out: DIZ
[16] = system: Bacillus pumilus; test: Antibacterial activity against Bacillus pumilus MTCC 1456 after 24 to 48 hr by tube dilution method
[17] = system: Staphylococcus aureus; test: Antibacterial activity against Staphylococcus aureus MTCC 1430 at 1000 ug/ml after 48 hr by cup-plate method; details: MTCC 1430, 48 h, read-out: DIZ
[18] = system: Escherichia coli; test: Antibacterial activity against Escherichia coli MTCC 1573 at 500 ug/ml after 48 hr by cup-plate method; details: MTCC 1573, 48 h, read-out: DIZ
[19] = system: Micrococcus luteus; test: Antibacterial activity against Micrococcus luteus MTCC 1538 at 250 ug/ml after 48 hr by cup-plate method; details: MTCC 1538, 48 h, read-out: DIZ
[20] = system: Penicillium chrysogenum; test: Antifungal activity against Penicillium chrysogenum MTCC 161 at 1000 ug/ml after 48 hr by cup-plate method; details: MTCC 161, 48 h, read-out: DIZ
[21] = system: Aspergillus niger; test: Antifungal activity against Aspergillus niger MTCC 2546 at 250 ug/ml after 48 hr by cup-plate method; details: MTCC 2546, 48 h, read-out: DIZ
[22] = system: Staphylococcus aureus; test: Antibacterial activity against Staphylococcus aureus MTCC 1430 at 1250 ug/ml after 48 hr by cup-plate method; details: MTCC 1430, 48 h, read-out: DIZ
[23] = system: Micrococcus luteus; test: Antibacterial activity against Micrococcus luteus MTCC 1538 at 1000 ug/ml after 48 hr by cup-plate method; details: MTCC 1538, 48 h, read-out: DIZ
[24] = system: Pseudomonas aeruginosa; test: Antibacterial activity against Pseudomonas aeruginosa MTCC 424 at 750 ug/ml after 48 hr by cup-plate method; details: MTCC 424, 48 h, read-out: DIZ
[25] = system: Bacillus pumilus; test: Antibacterial activity against Bacillus pumilus MTCC 1456 at 1000 ug/ml after 48 hr by cup-plate method; details: MTCC 1456, 48 h, read-out: DIZ
[26] = system: Bacillus pumilus; test: Antibacterial activity against Bacillus pumilus MTCC 1456 at 750 ug/ml after 48 hr by cup-plate method; details: MTCC 1456, 48 h, read-out: DIZ
[27] = system: Penicillium chrysogenum; test: Antifungal activity against Penicillium chrysogenum MTCC 161 after 24 to 48 hr by tube dilution method
[28] = system: Pseudomonas aeruginosa; test: Antibacterial activity against Pseudomonas aeruginosa MTCC 424 at 250 ug/ml after 48 hr by cup-plate method; details: MTCC 424, 48 h, read-out: DIZ
[29] = system: Aspergillus niger; test: Antifungal activity against Aspergillus niger MTCC 2546 at 500 ug/ml after 48 hr by cup-plate method; details: MTCC 2546, 48 h, read-out: DIZ
[30] = system: Micrococcus luteus; test: Antibacterial activity against Micrococcus luteus MTCC 1538 at 1250 ug/ml after 48 hr by cup-plate method; details: MTCC 1538, 48 h, read-out: DIZ
[31] = system: Pseudomonas fluorescens; test: Antibacterial activity against Pseudomonas fluorescens MTCC 2421 at 250 ug/ml after 48 hr by cup-plate method; details: MTCC 2421, 48 h, read-out: DIZ
[32] = system: Aspergillus niger; test: Antifungal activity against Aspergillus niger MTCC 2546 after 24 to 48 hr by tube dilution method
[33] = system: Micrococcus luteus; test: Antibacterial activity against Micrococcus luteus MTCC 1538 after 24 to 48 hr by tube dilution method
[34] = system: Escherichia coli; test: Antibacterial activity against Escherichia coli MTCC 1573 at 1000 ug/ml after 48 hr by cup-plate method; details: MTCC 1573, 48 h, read-out: DIZ
[35] = system: Pseudomonas aeruginosa; test: Antibacterial activity against Pseudomonas aeruginosa MTCC 424 at 100 ug/ml after 48 hr by cup-plate method; details: MTCC 424, 48 h, read-out: DIZ
[36] = system: Staphylococcus aureus; test: Antibacterial activity against Staphylococcus aureus MTCC 1430 at 500 ug/ml after 48 hr by cup-plate method; details: MTCC 1430, 48 h, read-out: DIZ
[37] = system: Aspergillus niger; test: Antifungal activity against Aspergillus niger MTCC 2546 at 1000 ug/ml after 48 hr by cup-plate method; details: MTCC 2546, 48 h, read-out: DIZ
[38] = system: Pseudomonas fluorescens; test: Antibacterial activity against Pseudomonas fluorescens MTCC 2421 at 750 ug/ml after 48 hr by cup-plate method; details: MTCC 2421, 48 h, read-out: DIZ
[39] = system: Pseudomonas aeruginosa; test: Antibacterial activity against Pseudomonas aeruginosa MTCC 424 at 1250 ug/ml after 48 hr by cup-plate method; details: MTCC 424, 48 h, read-out: DIZ
[40] = system: Staphylococcus aureus; test: Antibacterial activity against Staphylococcus aureus MTCC 1430 at 750 ug/ml after 48 hr by cup-plate method; details: MTCC 1430, 48 h, read-out: DIZ
[41] = system: Bacillus subtilis; test: Antibacterial activity against Bacillus subtilis MTCC 441 at 750 ug/ml after 48 hr by cup-plate method; details: MTCC 441, 48 h, read-out: DIZ
[42] = system: Penicillium chrysogenum; test: Antifungal activity against Penicillium chrysogenum MTCC 161 at 500 ug/ml after 48 hr by cup-plate method; details: MTCC 161, 48 h, read-out: DIZ
[43] = system: Bacillus pumilus; test: Antibacterial activity against Bacillus pumilus MTCC 1456 at 250 ug/ml after 48 hr by cup-plate method; details: MTCC 1456, 48 h, read-out: DIZ

O=[N+]([O-])c1ccc(C2CC(c3cccc4ccccc34)=NN2)cc1 (stereo not drawn)
zone of inhibition at 100 µg/mL [1]: 8 mm | zone of inhibition at 500 µg/mL [2]: 11 mm | zone of inhibition at 1250 µg/mL [3]: 19 mm | zone of inhibition at 500 µg/mL [4]: 11 mm | zone of inhibition at 500 µg/mL [5]: 13 mm | MIC [6]: 50 µg/mL (≈ 158 µM) | zone of inhibition at 100 µg/mL [7]: 10 mm | zone of inhibition at 250 µg/mL [8]: 9 mm | MIC [9]: 30 µg/mL (≈ 94.5 µM) | zone of inhibition at 500 µg/mL [10]: 10 mm | zone of inhibition at 1000 µg/mL [11]: 15 mm | MIC [12]: 200 µg/mL (≈ 630 µM) | zone of inhibition at 1250 µg/mL [13]: 18 mm | zone of inhibition at 1250 µg/mL [14]: 17 mm | zone of inhibition at 500 µg/mL [15]: 11 mm | MIC [16]: 30 µg/mL (≈ 94.5 µM) | zone of inhibition at 1000 µg/mL [17]: 14 mm | zone of inhibition at 500 µg/mL [18]: 11 mm | zone of inhibition at 250 µg/mL [19]: 10 mm | zone of inhibition at 1000 µg/mL [20]: 15 mm | zone of inhibition at 250 µg/mL [21]: 9 mm | zone of inhibition at 1250 µg/mL [22]: 16 mm | zone of inhibition at 1000 µg/mL [23]: 13 mm | zone of inhibition at 750 µg/mL [24]: 12 mm | zone of inhibition at 1000 µg/mL [25]: 17 mm | zone of inhibition at 750 µg/mL [26]: 14 mm | MIC [27]: 50 µg/mL (≈ 158 µM) | zone of inhibition at 250 µg/mL [28]: 10 mm | zone of inhibition at 500 µg/mL [29]: 10 mm | zone of inhibition at 1250 µg/mL [30]: 15 mm | zone of inhibition at 250 µg/mL [31]: 9 mm | MIC [32]: 50 µg/mL (≈ 158 µM) | MIC [33]: 30 µg/mL (≈ 94.5 µM) | zone of inhibition at 1000 µg/mL [34]: 15 mm | zone of inhibition at 100 µg/mL [35]: 9 mm | zone of inhibition at 500 µg/mL [36]: 11 mm | zone of inhibition at 1000 µg/mL [37]: 16 mm | zone of inhibition at 750 µg/mL [38]: 14 mm | zone of inhibition at 1250 µg/mL [39]: 15 mm | zone of inhibition at 750 µg/mL [40]: 13 mm | zone of inhibition at 750 µg/mL [41]: 15 mm | zone of inhibition at 500 µg/mL [42]: 10 mm | zone of inhibition at 250 µg/mL [43]: 9 mm
